We go through 1 compound from ChEMBL document CHEMBL5537152, “Targeted Degradation of PCSK9 In Vivo by Autophagy-Tethering Compounds” (J Med Chem, 2024).

Series [1] relates to Huh-7. Briefly: Cytotoxicity against human Huh-7 cells upto 1000 nM incubated for 24 hrs by MTT assay. The series is classed as toxicity, cell-based. The note with it: huh-7, 24 h, 1 µM. Background: Tetrazolium assays rely on reduction of a dye to a coloured formazan, in cell work by metabolically active cells.
In series [2] the test system is Huh-7. Briefly: Effect on SREBP2 mRNA level in human Huh-7 cells at 20 to 500 nM incubated for 12 hrs by qRT-PCR analysis. The conditions noted are these: dose 20-500 nM. The series is classed as functional, cell-based. For orientation: In qPCR the cycle at which signal appears reflects the starting amount.
In series [3] the test system is Huh-7. As to the kind of experiment: Effect on LDLR mRNA level in human Huh-7 cells at 20 to 500 nM incubated for 12 hrs by qRT-PCR analysis. The note with it: dose 20-500 nM. The series is classed as functional, cell-based.
Series [4] has as its system Huh-7. Briefly: Effect on PCSK9 mRNA level in human Huh-7 cells at 20 to 500 nM incubated for 12 hrs by qRT-PCR analysis. The series is classed as functional, cell-based. The conditions noted are these: dose 20-500 nM.
The subject of series [5] is Huh-7. Briefly: Effect on LC3B level in human Huh-7 cells upto 100 nM incubated for 24 hrs by Western blot analysis. The series is classed as functional, cell-based. In general terms: Immunoblotting shows a protein as a band on a membrane.
The subject of series [6] is Huh-7. As to the kind of experiment: Effect on autophagic flux in human Huh-7 cells upto 100 nM incubated for 24 hrs by Western blot analysis. The series is classed as functional, cell-based.
Series [7] has as its system Mus musculus. Briefly: Effect on body weight in hypercholesterolemic ApoE-/- mouse model at 0.5 to 30 mg/kg/day, ip measured for 14 days. The series is classed as functional, organism-based. The conditions noted are these: dose 0.5-30 mg/kg/day, time 14.0 day.
The subject of series [8] is Mus musculus. As to the kind of experiment: Antiatherosclerotic activity in hypercholesterolemic ApoE-/- mouse model assessed as decrease in plasma LDL-C level administered intraperitoneally measured after 14 days. The series is classed as functional, organism-based. The conditions noted are these: dose 15.0 mg/kg/day, route ip, time 14.0 day.
The test system of series [9] is Mus musculus. Briefly: Antiatherosclerotic activity in hypercholesterolemic ApoE-/- mouse model assessed as decrease in plasma triglyceride level administered intraperitoneally measured after 14 days. The series is classed as functional, organism-based. The note with it: dose 15.0 mg/kg/day, route ip, time 14.0 day.
Series [10] deals with Mus musculus. Briefly: Antiatherosclerotic activity in hypercholesterolemic ApoE-/- mouse model assessed as decrease in liver PCSK9 level administered intraperitoneally measured after 14 days. The series is classed as functional, organism-based. The conditions noted are these: dose 15.0 mg/kg/day, route ip, time 14.0 day.
The test system of series [11] is Mus musculus. Briefly: Antiatherosclerotic activity in hypercholesterolemic ApoE-/- mouse model assessed as increase in liver LDLR level administered intraperitoneally measured after 14 days. The series is classed as functional, organism-based. The conditions noted are these: dose 15.0 mg/kg/day, route ip, time 14.0 day.
The test system of series [12] is Mus musculus. As to the kind of experiment: Antiatherosclerotic activity in hypercholesterolemic ApoE-/- mouse model assessed as decrease in plasma PCSK9 level at 5 to 15 mg/kg/day, ip measured after 21 days. The conditions noted are these: dose 5-15 mg/kg/day, time 21.0 day. The series is classed as functional, organism-based.
The subject of series [13] is Mus musculus. Briefly: Antiatherosclerotic activity in hypercholesterolemic ApoE-/- mouse model assessed as decrease in plasma LDL-C level administered intraperitoneally measured after 21 days. The series is classed as functional, organism-based. The note with it: dose 5-15 mg/kg/day, route ip, time 21.0 day.
For series [14], the system named is Mus musculus. As to the kind of experiment: Antiatherosclerotic activity in hypercholesterolemic ApoE-/- mouse model assessed as decrease in plasma TG level administered intraperitoneally measured after 21 days. The series is classed as functional, organism-based. The conditions noted are these: dose 5-15 mg/kg/day, route ip, time 21.0 day.
The subject of series [15] is Mus musculus. Briefly: Antiatherosclerotic activity in hypercholesterolemic ApoE-/- mouse model assessed as decrease in oxidative stress at 5 to 15 mg/kg/day, ip measured after 21 days. The series is classed as functional, organism-based. The note with it: dose 5-15 mg/kg/day, time 21.0 day.
Series [16] relates to Mus musculus. As to the kind of experiment: Antiatherosclerotic activity in hypercholesterolemic ApoE-/- mouse model assessed as decrease in vacuolization in liver at 5 to 15 mg/kg/day, ip measured after 21 days by H and E staining based analysis. The series is classed as functional, organism-based. The note with it: dose 5-15 mg/kg/day, time 21.0 day.
Series [17] relates to Mus musculus. Briefly: Antiatherosclerotic activity in hypercholesterolemic ApoE-/- mouse model assessed as decrease in vacuolization in liver at 5 to 15 mg/kg/day, ip measured after 21 days by Masson staining based analysis. The series is classed as functional, organism-based. The note with it: dose 5-15 mg/kg/day, time 21.0 day.
Series [18] deals with Mus musculus. As to the kind of experiment: Antiatherosclerotic activity in hypercholesterolemic ApoE-/- mouse model assessed as decrease in liver fibrosis at 5 to 15 mg/kg/day, ip measured after 21 days by H and E staining based analysis. The conditions noted are these: dose 5-15 mg/kg/day, time 21.0 day. The series is classed as functional, organism-based.
Series [19] has as its system Mus musculus. Briefly: Antiatherosclerotic activity in hypercholesterolemic ApoE-/- mouse model assessed as decrease in liver fibrosis at 5 to 15 mg/kg/day, ip measured after 21 days by Masson staining based analysis. The series is classed as functional, organism-based. The note with it: dose 5-15 mg/kg/day, time 21.0 day.
In series [20] the test system is Mus musculus. As to the kind of experiment: Antiatherosclerotic activity in hypercholesterolemic ApoE-/- mouse model assessed as decrease in liver PCSK9 level at 5 to 15 mg/kg/day, ip measured after 21 days by Western blot analysis. The series is classed as functional, organism-based. The conditions noted are these: dose 5-15 mg/kg/day, time 21.0 day.
For series [21], the system named is Mus musculus. As to the kind of experiment: Antiatherosclerotic activity in hypercholesterolemic ApoE-/- mouse model assessed as decrease in liver PCSK9 level at 5 to 15 mg/kg/day, ip measured after 21 days by immunohistochemistry analysis. The series is classed as functional, organism-based. The conditions noted are these: dose 5-15 mg/kg/day, time 21.0 day.

Series [22] has as its system Mus musculus. Briefly: Antiatherosclerotic activity in hypercholesterolemic ApoE-/- mouse model assessed as increase in liver LDLR level at 5 to 15 mg/kg/day, ip measured after 21 days by Western blot analysis. The series is classed as functional, organism-based. The note with it: dose 5-15 mg/kg/day, time 21.0 day.
In series [23] the test system is Mus musculus. As to the kind of experiment: Antiatherosclerotic activity in hypercholesterolemic ApoE-/- mouse model assessed as increase in liver LDLR level at 5 to 15 mg/kg/day, ip measured after 21 days by immunohistochemistry analysis. The series is classed as functional, organism-based. The note with it: dose 5-15 mg/kg/day, time 21.0 day.

Molecules are shown by their SMILES. The source made the active and inactive calls. The calls are words filed in the database; no cut-off is given here.

With `COc1cc2c(cc1OCCCCN1C(=O)/C(=C\c3cc(Br)c(O)c(OC)c3)c3cc(Br)ccc31)C(C)(CC(=O)Nc1nccs1)NCC2` (stereo not drawn), the Activity result was “Non-Toxic” in the series with Huh-7 [1]; “Dose-Dependent Effect” with Mus musculus [8]; “Dose-Dependent Effect” with Mus musculus [9]; “Dose-Dependent Effect” in the series on Mus musculus [10]; “Dose-Dependent Effect” in the series on Mus musculus [11]; “Dose-Dependent Effect” with Mus musculus [13]. Further, in the series on Mus musculus [14], the Activity entry is “Dose-Dependent Effect”. The outcome in the series with Huh-7 [2], in the series with Huh-7 [3], with Huh-7 [4], in the series on Huh-7 [5], in the series on Huh-7 [6] and in the series on Mus musculus [7] was inactive. In addition, the outcome in the series on Mus musculus [12], in the series on Mus musculus [15], in the series with Mus musculus [16], in the series with Mus musculus [17], with Mus musculus [18] and in the series with Mus musculus [19] was Active. Also, the outcome in the series on Mus musculus [20], in the series with Mus musculus [21], with Mus musculus [22] and in the series with Mus musculus [23] was Active.
